Test results taken from US11844823B2, “Beta-hairpin peptidomimetic with elastase inhibitory activity and aerosol dosage forms thereof” (POLYPHOR AG, priority 2016, dated 2023).
Non-standard residues stand in square brackets, D forms with d. Residues, ends and D or L forms follow the SMILES beside them. Gly(octyl) = CCCCCCCC[C@H](N)C(=O)O

System: neutrophil elastase
Experiment: LPS/fMLP model of neutrophil activation in the rat, inhalation; neutrophil elastase activity in BAL supernatant
Format: in vivo
Conditions: for NE activity in BAL fluid: mean ± s.e.m., vehicle 0.25 ± 0.02, p < 0.0001
Description: The purpose of this study (conducted by Envigo CRS Limited, Alconbury, Huntingdon, United Kingdom) was to evaluate the effects of acetate salt of cyclo(-OctG-Glu-Thr-Ala-Ser-Ile-Pro-Pro-Gln-Lys-Tyr-^DPro-Pro-) administered by inhalation in a LPS/fMLP model of neutrophil activation in the rat.
Animals were challenged with aerosolized LPS (lipopolysaccharide, 1 mg/mL) for 30 min. Approximately 3 h following end of LPS challenge, animals were administered either vehicle or formulations as described above of acetate salt of cyclo(-OctG-Glu-Thr-Ala-Ser-Ile-Pro-Pro-Gln-Lys-Tyr-^DPro-Pro-) by inhalation (Groups 1-4) over a 30 min period using an eFlow® 30 XL electronic nebulizer (Pari Pharma GmbH, Starnberg, Germany; snout only exposure). All animals were dosed with fMLP (N-formyl-Met-Leu-Phe, 5 mg/kg) approximately 4 h post completion of the LPS challenge via the intratracheal route under transient gaseous anaesthesia at a dose volume of 1 mL/kg. Approximately 2 h after fMLP administration, animals were terminated and a bronchoalveolar lavage (BAL) was performed to evaluate inflammatory cell infiltrate and neutrophil elastase activity.
Following confirmation of death, the trachea of an animal was isolated, the tracheal cannula inserted and secured in place, and the airway was lavaged with 3 mL of phosphate buffered saline (PBS). The lavage was repeated twice and in total, three lots of 3 mL of PBS were used. The first lavage aliquot containing cells was placed into a 15 mL centrifuge tube on wet ice (Tube A). The BAL fluid pooled from the second two lavages was placed into a second tube (Tube B). Tube A and B were placed on wet ice until centrifuged. Centrifugation was performed at 800×g for 10 min at ca. 4° C. and the supernantant was harvested. Until neutrophil elastase analysis supernantant was stored at ca. […].
The two aliquots of BAL supernatant were analyzed for neutrophil elastase activity as follows: 120 μl of BAL supernatant from aliquot 1 was transferred to a 96 well plate (Corning #3650). In parallel, a dilution range from 1.6 to 0.025 mU/well of a commercial human neutrophil elastase (hNE, Serva #20927.01) was prepared. 120 μl of each hNE dilution were transferred in duplicate to the 96-well plate. To start the enzymatic reaction, 80 μl of a fluorescent peptide substrate (MeOSuc-Ala-Ala-Pro-Val-AMC) at a final concentration of 500 μM was added to each well and the plate was immediately placed in the victor2v fluorescent reader pre-warmed at 37° C. Fluorescence (λexc. 485 nm, λem. 535 nm) was recorded for 2 h at 37° C. Enzyme initial velocity (RFU/min) of all samples was calculated and converted in mU/mL hNE equivalent, using the linear regression equation obtained from the plot (RFU/min vs mU/mL of hNE dilution) of the human neutrophil elastase standard range. The assay was repeated using BAL supernatant from aliquot 2. The neutrophil elastase data reported is a mean of the neutrophil elastase activity from both aliquots.

CCCCCCCC[C@@H]1NC(=O)[C@@H]2CCCN2C(=O)[C@H]2CCCN2C(=O)[C@H](Cc2ccc(O)cc2)NC(=O)[C@H](CCCCN)NC(=O)[C@H](CCC(N)=O)NC(=O)[C@@H]2CCCN2C(=O)[C@@H]2CCCN2C(=O)[C@H]([C@@H](C)CC)NC(=O)[C@H](CO)NC(=O)[C@H](C)NC(=O)[C@H]([C@@H](C)O)NC(=O)[C@H](CCC(=O)O)NC1=O [cyclo(-OctG-Glu-Thr-Ala-Ser-Ile-Pro-Pro-Gln-Lys-Tyr-^DPro-Pro-)] (cyclo([Gly(octyl)]ETASIPPQKY[dP]P))
NE activity in BAL fluid (0.3 mg/kg inhalation): 0.10 ± 0.01 mU/mL eq. | NE activity in BAL fluid (3 mg/kg inhalation): 0.11 ± 0.01 mU/mL eq. | NE activity in BAL fluid (30 mg/kg inhalation): 0.07 ± 0.01 mU/mL eq. | effect on neutrophil elastase activity in BAL fluid (0.3, 3 and 30 mg/kg by inhalation 3 h post LPS, 1 h prior to fMLP, BAL 6 h post LPS): significantly inhibited | clinical signs between dosing and study termination (rat, inhalation 0.3-30 mg/kg): No test item related clinical signs
